Experimental data published in US20040121316A1 (priority 2002, published 2004).
Where two headings read alike, the source gives them in different places.

Experiments:
[1] = target: porcine liver carboxylesterase (PLCE) (Sus scrofa, UniProt Q29550); format: biochemical
[2] = target: GS-7340 Ester Hydrolase (Homo sapiens, UniProt P10619); format: biochemical
[3] = target: human leukocyte elastase (huLE) (Homo sapiens, UniProt P08246); assay: biochemical; details: IC50 (μM) huLE
[4] = tested on: recombinant HIV-1 10R 46I 82T 84V; assay: Cross-Resistance Profile Assay; format: cell-based; details: protease mutations 10R 46I 82T 84V
[5] = tested on: recombinant HIV-1 48V 54V 71V 82S; assay: microbe, parasite or virus in culture; format: cell-based; details: protease mutations 48V 54V 71V 82S
[6] = tested on: recombinant HIV-1 46I 84A; assay: Cross-Resistance Profile Assay; format: cell-based; details: protease mutations 46I 84A
[7] = tested on: recombinant HIV-1 10F 46I 71V 82T 90M; assay: Cross-Resistance Profile Assay; format: cell-based; details: protease mutations 10F 46I 71V 82T 90M
[8] = tested on: recombinant HIV-1 strains with resistance mutations in the protease gene; assay: Cross-Resistance Profile Assay, whole panel; format: cell-based; details: {}
[9] = tested on: recombinant HIV-1 46I 47V 50V; assay: microbe, parasite or virus in culture; format: cell-based; details: protease mutations 46I 47V 50V
[10] = tested on: wild-type HIV-1 strain IIIB; assay: microbe, parasite or virus in culture; format: cell-based; details: Human immunodeficiency virus 1, IIIB
[11] = tested on: mutant HIV-1 I84V/L90M; assay: Resistance Evaluation, I84V/L90M fold change; format: cell-based; details: EC50 of mutant I84V/L90M relative to wild type; class symbols
[12] = target: T1, recombinant HIV-1 protease (Human immunodeficiency virus type 1 group M subtype B, UniProt P04585); assay: biochemical; details: Ki
T1 construct: Enzyme: recombinant HIV-1 protease expressed in E.Coli; purchased Bachem California, Inc. H-9040; host or cells: E. coli

[13] = tested on: recombinant HIV-1 10I 48V 71V 82A 90M; assay: microbe, parasite or virus in culture; format: cell-based; details: protease mutations 10I 48V 71V 82A 90M
[14] = tested on: recombinant HIV-1 10I 84V 71V 73S 90M; assay: microbe, parasite or virus in culture; format: cell-based; details: protease mutations 10I 84V 71V 73S 90M
[15] = tested on: recombinant HIV-1 54V 71V 82S; assay: Cross-Resistance Profile Assay; format: cell-based; details: protease mutations 54V 71V 82S
[16] = tested on: recombinant HIV-1 10I 48V 54V 82A; assay: microbe, parasite or virus in culture; format: cell-based; details: protease mutations 10I 48V 54V 82A
[17] = tested on: recombinant HIV-1 30N 50S 82I 88D; assay: microbe, parasite or virus in culture; format: cell-based; details: protease mutations 30N 50S 82I 88D

GS-7340 Ester Hydrolase, sequence (P10619 29-480): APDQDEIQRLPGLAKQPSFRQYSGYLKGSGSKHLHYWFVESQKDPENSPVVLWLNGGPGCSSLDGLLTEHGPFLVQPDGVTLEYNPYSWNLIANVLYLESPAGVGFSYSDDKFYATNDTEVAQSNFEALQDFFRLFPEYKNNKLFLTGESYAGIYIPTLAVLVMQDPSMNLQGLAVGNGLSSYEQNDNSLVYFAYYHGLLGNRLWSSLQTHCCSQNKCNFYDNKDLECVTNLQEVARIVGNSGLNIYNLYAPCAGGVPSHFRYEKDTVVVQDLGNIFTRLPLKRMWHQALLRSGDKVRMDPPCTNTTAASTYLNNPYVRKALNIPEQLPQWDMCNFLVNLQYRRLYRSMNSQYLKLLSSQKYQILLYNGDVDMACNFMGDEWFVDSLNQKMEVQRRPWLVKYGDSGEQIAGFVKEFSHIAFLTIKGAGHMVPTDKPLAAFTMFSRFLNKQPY
porcine liver carboxylesterase (PLCE), sequence (Q29550 whole entry): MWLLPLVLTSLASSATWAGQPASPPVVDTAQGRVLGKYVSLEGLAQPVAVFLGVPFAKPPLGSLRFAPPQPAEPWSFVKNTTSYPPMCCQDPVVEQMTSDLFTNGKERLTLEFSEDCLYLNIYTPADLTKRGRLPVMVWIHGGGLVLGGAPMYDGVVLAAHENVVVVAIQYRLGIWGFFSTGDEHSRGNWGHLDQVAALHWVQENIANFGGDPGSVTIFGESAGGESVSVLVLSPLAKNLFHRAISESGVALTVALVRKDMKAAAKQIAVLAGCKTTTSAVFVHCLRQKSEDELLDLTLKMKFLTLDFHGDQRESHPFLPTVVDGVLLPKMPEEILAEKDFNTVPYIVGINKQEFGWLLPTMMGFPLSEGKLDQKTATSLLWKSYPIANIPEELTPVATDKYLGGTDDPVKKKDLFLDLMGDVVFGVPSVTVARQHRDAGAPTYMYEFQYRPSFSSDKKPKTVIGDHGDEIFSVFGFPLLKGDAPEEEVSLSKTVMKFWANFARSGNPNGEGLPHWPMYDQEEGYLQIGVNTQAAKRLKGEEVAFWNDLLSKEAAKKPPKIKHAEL
human leukocyte elastase (huLE), sequence (P08246 30-267): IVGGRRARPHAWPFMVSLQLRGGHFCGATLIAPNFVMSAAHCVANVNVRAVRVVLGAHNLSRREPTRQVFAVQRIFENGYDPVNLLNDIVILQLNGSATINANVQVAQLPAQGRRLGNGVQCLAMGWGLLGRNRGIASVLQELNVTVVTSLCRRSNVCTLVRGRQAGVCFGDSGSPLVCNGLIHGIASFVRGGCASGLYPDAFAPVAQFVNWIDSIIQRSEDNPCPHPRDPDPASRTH

Row | SMILES | Fold Change in EC50 Relative to WT HIV-1 [4] | Fold Change in EC50 Relative to WT HIV-1 [5] | Fold Change in EC50 Relative to WT HIV-1 [6] | Fold Change in EC50 Relative to WT HIV-1 [7] | Total No. of Resistant Viruses [8] | Fold Change in EC50 Relative to WT HIV-1 [9] | EC50 [10] | I84V/L90M fold change [11] | Fold Change in EC50 Relative to WT HIV-1 [13] | other results
1 | O=c1oc(Cl)c(Cl)c2ccccc12 [3,4-dichloroisocoumarin] | – | – | – | – | – | – | – | – | – | IC50 [1]: 250 µM; IC50 ([1]; read-out: IC50 (μM) PLCE): 250 µM; Relative Activity (%) ([2]; 1 µM): 100%; Relative Activity (%) ([2]; 10 µM): 25%; Relative Activity (%) ([2]; 100 µM): 5%; Relative Activity (%) ([2]; 1000 µM): <2%; IC50 [3]: 3 µM
2 | Cc1cccc(C)c1OCC(=O)N[C@@H](Cc1ccccc1)[C@@H](O)C[C@H](Cc1ccccc1)NC(=O)[C@H](C(C)C)N1CCCNC1=O [Lopinavir, reference compound] | 11 fold | 60 fold | 9 fold | 7.5 fold | 6 | 19 fold | < 0.05 µM | ++ (>10 to ≦30) | 4.5 fold | Ki [12]: 0.01 to 0.1 nM; Fold Change in EC50 Relative to WT HIV-1 [14]: 11 fold
3 | CCC[C@@]1(CCc2ccccc2)CC(O)=C([C@H](CC)c2cccc(NS(=O)(=O)c3ccc(C(F)(F)F)cn3)c2)C(=O)O1 [Tipranavir, reference compound] | 5 fold | 2 fold | 1 fold | 3 fold | 1 | 0.5 fold | 0.05 to 0.5 µM | + (>3 to ≦10) | 0.3 fold | Fold Change in EC50 Relative to WT HIV-1 [15]: 3.5 fold; Fold Change in EC50 Relative to WT HIV-1 [16]: 0.4 fold; Fold Change in EC50 Relative to WT HIV-1 [17]: 0.5 fold
